This note sets out measurements from patent US6060481A, “Method for improving insulin sensitivity using an adenosine receptor antagonist” (priority 1999, dated 2000).

Experiment [1] deals with T1, human A1 adenosine receptor (Homo sapiens, UniProt P30542).
T1 construct: expressed in transfected cells
T1 sequence (P30542 1-326): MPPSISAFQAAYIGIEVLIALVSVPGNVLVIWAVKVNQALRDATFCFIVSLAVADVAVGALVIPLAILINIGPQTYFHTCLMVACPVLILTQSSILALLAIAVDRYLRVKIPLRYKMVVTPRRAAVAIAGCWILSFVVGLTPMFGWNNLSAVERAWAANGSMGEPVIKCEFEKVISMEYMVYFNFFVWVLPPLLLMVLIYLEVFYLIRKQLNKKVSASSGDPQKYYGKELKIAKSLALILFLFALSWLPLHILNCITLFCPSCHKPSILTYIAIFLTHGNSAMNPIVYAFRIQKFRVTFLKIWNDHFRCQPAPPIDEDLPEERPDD
The experiment in a line: Binding constants against cloned and expressed human adenosine receptor subtypes (A1). To be noted: read-out: Binding constant (KD) A1.

Experiment [2] concerns protein tyrosine phosphatases in WGA eluates. The note with it: 1 mM in the buffers.
Method: The procedure was modified by decreasing the length of autoradiographic exposure to increase sensitivity. ^32 P-poly Glu:Tyr4:1 substrate was incorporated into the 100% SDS polyacrylamide gel prior to polymerization. WGA eluates which were run on the gels were concentrated on Centricon filters to approximately 2 mg/ml. Aliquots (100 μg) were run on the gels. Gels were washed overnight to remove SDS. The proteins were first fully denatured in 6M guanidine HCl and then, after electrophoresis, renatured by incubation in phosphatase assay buffers containing 0.04% Tween® 40 and high concentrations of dithiothreitol (DTT). Next, the gels were dried and exposed to Kodak X-Omat x-ray film at -70° C. for various times. […] In some experiments, concentrated WGA eluates were treated with the antibody anti-PTPase 1B (5 g) prior to assaying phosphatase activity. The antibody was added to 50 μl concentrated eluate and the sample was incubated for 1 h on a tube vortexer at room temperature. Fifty μl of 50% protein A Agarose were centrifuged in a separate tube at 14,000 g for 30 sec. The supernatant was removed, and at the end of 1 h, the WGA eluate was introduced to the agarose precipitate and vortexing was continued for an additional 30 min. As a control, WGA eluates that were not treated with antibody were also introduced to the gels. […]

In general, Kd refers to the concentration at which binding is half-saturated.

Consider `CCCn1c(=O)[nH]c(=O)c2[nH]cnc21` [Enprofylline, 3-n-propylxanthine], for which the Kd in experiment [1] was determined as 156 µM. On to sodium vanadate, for which the “PTPase bands in in-gel assay” value in experiment [2] was “Bands disappeared”.
